Test results: publication PMC7689490, “Designed CXCR4 mimic acts as a soluble chemokine receptor that blocks atherogenic inflammation by agonist-specific targeting” (Nature Communications, 2020)
Values joined by “and” are separate entries in the source; they are usually repeats but may differ in a detail not shown here. Identical values can stand only once. “Also recorded” adds a separate entry of the source.

How the values were obtained:
[1] = test system: primary mouse spleen B lymphocytes; assay: MIF-triggered Transwell chemotaxis of primary splenic B cells;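 as to all read-outs here: migration tracked over 4 h at 37 °C, read out as transmigrated cells counted by flow cytometry with absolute counting beads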; assay type: cell-based; conditions: for MIF-elicited chemotaxis: Suppl. Fig. 15b, individual replicates, n = 4
Experimental: Briefly, splenic B cells were isolated by negative depletion using a Pan B Cell Isolation Kit (Miltenyi Biotec, Bergisch Gladbach, Germany). […] Chemotaxis was followed for 4 h at 37 °C in a humidified atmosphere of 5% CO2. Migrated cells were counted by flow cytometry using CountBright™ Absolute Counting Beads (Molecular Probes-Invitrogen).

pAMPK/AMPK in HCM = assay: MIF/CD74-triggered AMPK signaling in human cardiomyocytes (HCM); assay type: cell-based
Experimental: HCMs (2 × 10^5 per well) were plated in 12-well plates and maintained for 2 days with cultured medium containing 5% FCS. Before stimulation, medium was replaced by fresh myocyte basal medium containing 0.05% FCS and HCMs rested for 16 h. Surface CD74 expression on HCMs was verified by flow cytometry (FITC-conjugated anti-human CD74 (1:100 dilution), FITC-IgG2 (isotype control) (BD Pharmingen), 1 h/4 °C in the dark, BD FACSVerse™ flow cytometer, FlowJo software). […] After treatment, cells were lysed and subjected to SDS-PAGE (10%)/Western blotting using NuPAGE® lithium dodecyl sulfate (LDS)/dithiothreitol (DTT) lysis buffer-containing PhosSTOP^TM reagent (Roche Applied Science). […] Anti-rabbit horse-radish peroxidase (HRP)-conjugated antibody (1:10000, GE Healthcare, Freiburg, Germany) was used for development and signals quantitated by chemiluminescence using an Odyssey® Fc imager. Unprocessed scans of the Western blots are supplied in the Source Data file.

[2] = test system: primary human monocyte-derived macrophages; assay: MIF-mediated DiI-LDL uptake / foam cell formation; assay type: cell-based; conditions: 80 nM MIF
Experimental: After washing with imaging solution (MEM without phenol red containing 30 mM HEPES, 0.5 g/L NaHCO3, pH 7.4, and 0.2% BSA), cells were exposed to 50 µg mL^−1 1,1′-dioctadecyl-3,3,3′3′-tetramethylindocarbocyanine-labeled oxidized LDL (DiI-oxLDL) or DiI-labeled native LDL (DiI-LDL) for 30 min at 4 °C, followed by incubation at 37 °C for 20 min. Cells were washed with ice-cold imaging solution (pH 3.5), fixed, and counter-stained with Hoechst 33258.

MonoMac-6 / HAoEC = assay: MIF-induced MonoMac-6 adhesion to HAoECs under flow; assay type: cell-based, human
Experimental: HAoECs were seeded at a density of 60,000 cells per channel in collagen-coated Ibidi µ-Slides I 0.8 and incubated for 20–24 h until monolayers were confluent. […] Prior to the flow assay, MgSO4 and CaCl2 were added to MonoMac6 suspensions at a final concentration of 1 mM. Flow channels containing HAoEC monolayers were then perfused with MonoMac6 cells at a shear rate of 1.5 dyn cm^−2 for 10 min at 37 °C using the Ibidi Pump System/Perfusion Set. For quantification of adherent monocytes, images from four positions per channel were acquired using a Leica DMi8 inverted microscope (20 x objective) and quantified with ImageJ.

[3] = test system: carotid arteries of Apoe−/− mice; assay: Leukocyte adhesion in ex vivo mounted atherosclerotic carotid arteries under flow (MPM); set-up: species or system mouse
Experimental: Monocyte adhesion experiments in atherosclerotic carotid arteries under physiological flow conditions ex vivo have been established[14],[75] and were performed by a slight modification of this procedure. Briefly, seven-week-old Apoe^−/− mice were fed a Western-type HFD (0.2% cholesterol) for 12 weeks. […] On day 3, arteries were prepared and mounted into an arteriograph chamber. […] Mouse leukocytes isolated from the bone marrow of msR4M-L1- or vehicle-treated atherogenic Apoe^−/− mice were stained with fluorescent Green CMFDA or Red CMPTX (Thermo Fisher Scientific). […] The red- and green-stained cell pools were mixed at a 1:1 ratio and 3 × 10^6 cells in 6 mL perfused into the artery of msR4M-L1- or vehicle-treated mice, respectively. Arteries were scanned by MPM using a multispectral TCS SP8 DIVE instrument with filter-free 4TUNE NDD detection module (Leica) and the number of adherent and transmigrated leukocytes determined by scanning multiphoton excitation. Vessel structure (and plaques) were visualized by second harmonic generation (SHG). Image acquisition, visualization, and processing was performed using the LAS X SP8 software package with LAS X 3D visualization and analysis (Leica) and LAS X HyVolution 2 packages from Leica/SVI Huygens, (Laapersveld, NL).

Apoe−/− mice on HFD = assay: In vivo model of atherosclerosis (lesions, lesional macrophages, tolerability)
Experimental: Seven-eight-week-old female Apoe^−/− mice were randomly divided into two groups of 11–12 mice each and both groups put on a Western-type HFD (0.21% cholesterol) for 4.5 weeks. Mice develop early-to-intermediate atherosclerotic lesions in this model. […] At the end of the experiment, mice were sacrificed, blood collected by cardiac puncture and saved for blood cell and lipid measurements and mice transcardially perfused with saline. Hearts, proximal aortas and carotid arteries were prepared and fixed for plaque morphometry and lesion analysis.
Quantification of plaques and vessel morphometry (ORO and H&E staining). Cut heart tissues containing aortic root were embedded in Tissue Tek optimum cutting temperature (OCT) substance (Sakura Finetek, Osaka, Japan) and frozen at −80 °C. Eight-µm sections were prepared for ORO staining and plaque immune cell analysis. The accumulation of macrophages in aortic root lesions was determined by an anti-MAC-2 antibody (1:100 dilution) followed by Cy5-conjugated secondary antibody. Nuclei were visualized with DAPI. The aortic arch was cut, fixed in 4% paraformaldehyde (PFA) and embedded in paraffin. Four-µm sections containing the three branches (brachiocephalic, left common carotid, and left subclavian artery) were prepared and stained with hematoxylin/eosin (H&E) for vessel morphometry. Images were captured with a Leica DMi8 microscope and quantified using ImageJ.

[4] = test system: circulating inflammatory cytokines; assay: Plasma cytokine array in treated Apoe−/− mice; assay type: in vivo, mouse; conditions: reductions for IL-1α, IL-16, TNF-α, CXCL13/BLC; 6 vs 6 mice
Experimental: Plasma samples were diluted (1:10) in array buffer; incubated with antibody detection cocktail for 1 h at RT, exposed to the blocked membranes (overnight, 4 °C), membranes washed and incubated with streptavidin-HRP conjugate working solution (30 min, RT). Membranes were developed with Chemi-Reagent Mix and analyzed by Odyssey® Fc imager. The average signal (mean signal intensity) of duplicate spots was quantified by ImageJ.

[5] = mouse, in vivo
in vivo = conditions: C57BL/6, mouse, ip, 50 ug per mouse
Experimental: Plasma was immediately separated by centrifugation at 3000 rpm for 10 min at 4 °C, and placed on ice protected from light. Plasma aliquots were diluted (1:1) with SDS-PAGE sample buffer, boiled, analyzed in 10–20% Tricine SDS-PAGE gels, and red fluorescent bands imaged by Odyssey® Fc imager.

## CC[C@H](C)[C@H](NC(=O)[C@H](Cc1ccc(O)cc1)NC(=O)[C@H](CCCNC(=N)N)NC(=O)[C@H](CC(=O)O)NC(=O)CCCCCCCCCCCNC(=O)CCCCCNC(=O)[C@H](CCCCN)NC(=O)[C@H](CS)NC(=O)[C@H](CC(C)C)NC(=O)[C@H](Cc1ccccc1)NC(=O)[C@H](CC(N)=O)NC(=O)CNC(=O)[C@H](Cc1ccccc1)NC(=O)[C@H](Cc1ccc(O)cc1)NC(=O)[C@H](Cc1c[nH]c2ccccc12)NC(=O)[C@H](CC(N)=O)NC(=O)[C@H](C)NC(=O)[C@@H](NC(=O)[C@H](C)NC(=O)[C@@H](N)CC(=O)O)C(C)C)C(=O)N[C@@H](CS)C(=O)N[C@@H](CC(=O)O)C(=O)N[C@@H](CCCNC(=N)N)C(=O)N[C@@H](Cc1ccccc1)C(=O)N[C@@H](Cc1ccc(O)cc1)C(=O)N1CCC[C@H]1C(=O)N[C@@H](CC(N)=O)C(=O)N[C@@H](CC(=O)O)C(=O)N[C@@H](CC(C)C)C(=O)N[C@@H](Cc1c[nH]c2ccccc12)C(=O)N[C@H](C(N)=O)C(C)C [msR4M-L1, CXCR4-ECL1[97–110]-6-Ahx-12-Ado-ECL2[182–196]]
[1]; 16 nM MIF, peptide at 5-fold molar excess (80 nM)
  inhibition of MIF-mediated B-cell chemotaxis: fully blocked
[1]; log(msR4M-L1) (M) = -6.495
  MIF-elicited chemotaxis: 1.49 and 1 and 1.46 and 1.55
[1]; log(msR4M-L1) (M) = -6.796
  MIF-elicited chemotaxis: 1.24 and 1.03 and 1.49 and 1.3
[1]; log(msR4M-L1) (M) = -7.097
  MIF-elicited chemotaxis: 1.2 (3×) and 1.12
[1]; log(msR4M-L1) (M) = -7.495
  MIF-elicited chemotaxis: 1.18 and 1.24 and 2 and 1.77
[1]; log(msR4M-L1) (M) = -7.796
  MIF-elicited chemotaxis: 1.67 (2×) and 2.32 and 1.89
[1]; log(msR4M-L1) (M) = -10
  MIF-elicited chemotaxis: 2.52 and 2.18 and 3 and 2.83
pAMPK/AMPK in HCM
  effect on MIF-upregulated pAMPK levels: not attenuated
[2]
  inhibition of MIF-mediated DiI-LDL uptake: dose-dependently inhibited; also recorded: slightly better than that of ISO-1, but lower than that of NIH/IIID.9
MonoMac-6 / HAoEC; 1.5 dyn/cm^2, 16 nM MIF, 320 nM msR4M-L1
  effect on MIF-induced monocyte adhesion under flow: inhibited monocyte adhesion
MonoMac-6 / HAoEC; MIF + msR4M-L1, individual replicates, n = 4
  Fig. 5c, MIF-induced monocyte adhesion: 206 and 207 and 188 and 291
MonoMac-6 / HAoEC; TNF + MIF + msR4M-L1, individual replicates, n = 3
  Fig. 5b, MIF-induced monocyte adhesion: 105.71 and 99.43 and 83.71
[3]; msR4M-L1 100 µg once daily for 3 days before vessel harvest, 5–6 carotid arteries per group
  number of luminally adhering leukocytes: significantly reduced
[3]; msR4M-L1 group, individual values, n = 6
  Fig. 5l, leukocyte adhesion in ex vivo mounted carotid arteries: 12 and 45 and 36 and 16 and 32
Apoe−/− mice on HFD; 50 µg i.p. for 4.5 weeks
  toxicity or side effects: No toxicity or side effects were noted
Apoe−/− mice on HFD; Apoe−/− mice, HFD 4.5 weeks, 50 µg (2.5 mg kg^−1) i.p. three times per week, HE, 7 vs 7 mice
  atherosclerotic lesion size in aortic arch: significantly decreased
Apoe−/− mice on HFD; Fig. 6g, msR4M-L1-treated animals, per animal, n = 11
  Lesion area (x10to3 µm2): 184.774 x10to3 µm2 and 104.198 x10to3 µm2 and 151.257 x10to3 µm2 and 126.04 x10to3 µm2 and 45.213 x10to3 µm2 and 130.67 x10to3 µm2 and 89.727 x10to3 µm2 and 63.265 x10to3 µm2 and 177.705 x10to3 µm2 and 117.601 x10to3 µm2 and 70.989 x10to3 µm2
Apoe−/− mice on HFD; as E123, 11 vs 12 mice
  number of lesional macrophages, MAC-2 staining: significantly decreased
Apoe−/− mice on HFD; as E123, ORO, 12 vs 12 mice
  atherosclerotic lesion size in aortic root: significantly decreased
[4]
  circulating inflammatory cytokine levels: marked reduction
[5]
  Body weight: 22.3 ± 0.2 g
In vivo
  level at time molar: 20 to 50 nM
